# From ChEMBL document CHEMBL1201861, “Genomics of Drug Sensitity in Cancer screening data, Wellcome Trust Sanger Institute”
# Key:
# Experiment in all cases: cells
# Assay type in all cases: functional, cell-based, Homo sapiens
# [1] = test system: BT-20; conditions: Homo sapiens, BT-20;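 also: cell viability assay measuring suppression of growth in human BT-20 cells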
# Description: SANGER: Inhibition of human BT-20 cell growth in a cell viability assay.
# [2] = test system: SIMA; conditions: Homo sapiens, SIMA;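 also: growth inhibition of SIMA cells, measured with a cell viability readout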
# Description: SANGER: Inhibition of human SIMA cell growth in a cell viability assay.
# [3] = test system: CAL-62; conditions: Homo sapiens, CAL-62;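 also: growth inhibition of CAL-62 cells, read out with a cell viability assay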
# Description: SANGER: Inhibition of human CAL-62 cell growth in a cell viability assay.
# [4] = test system: A 172; conditions: Homo sapiens, A 172;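 also: growth inhibition of A172 cells, measured with a cell viability readout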
# Description: SANGER: Inhibition of human A172 cell growth in a cell viability assay.
# [5] = test system: HCC38; conditions: Homo sapiens, HCC38;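 also: cell viability assay on the human HCC38 cell line, with IC50 marking the concentration that inhibits cell growth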
# Description: SANGER: Inhibition of human HCC38 cell growth in a cell viability assay.
# [6] = test system: RMG-I; conditions: Homo sapiens, RMG-I;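 also: growth inhibition of human RMG-I cells, read out with a cell viability assay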
# Description: SANGER: Inhibition of human RMG-I cell growth in a cell viability assay.
# [7] = test system: J82; conditions: Homo sapiens, J82;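 also: growth inhibition of J82 cells, read out with a cell viability assay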
# Description: SANGER: Inhibition of human J82 cell growth in a cell viability assay.
# [8] = test system: NCI-H716; conditions: Homo sapiens, NCI-H716;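 also: growth inhibition of human NCI-H716 cells, measured by a cell viability assay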
# Description: SANGER: Inhibition of human NCI-H716 cell growth in a cell viability assay.
# [9] = test system: SK-LU-1; conditions: Homo sapiens, SK-LU-1;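 also: cell viability assay measuring growth inhibition of human SK-LU-1 cells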
# Description: SANGER: Inhibition of human SK-LU-1 cell growth in a cell viability assay.
# [10] = test system: NCI-H2171; conditions: Homo sapiens, NCI-H2171;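 also: growth inhibition of human NCI-H2171 cells, read out by a cell viability assay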
# Description: SANGER: Inhibition of human NCI-H2171 cell growth in a cell viability assay.
# [11] = test system: MRK-nu-1; conditions: Homo sapiens, MRK-nu-1;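 also: cell viability assay measuring growth suppression of human MRK-nu-1 cells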
# Description: SANGER: Inhibition of human MRK-nu-1 cell growth in a cell viability assay.
# [12] = test system: NCI-H1963; conditions: Homo sapiens, NCI-H1963;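 also: cell growth inhibition of the human line, determined with a cell viability assay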
# Description: SANGER: Inhibition of human NCI-H1963 cell growth in a cell viability assay.
# [13] = test system: SW1463; conditions: Homo sapiens, SW1463;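 also: growth inhibition of SW1463 cells, determined with a cell viability assay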
# Description: SANGER: Inhibition of human SW1463 cell growth in a cell viability assay.
# [14] = test system: RL; conditions: Homo sapiens, RL
# Description: SANGER: Inhibition of human RL cell growth in a cell viability assay.
# [15] = test system: NCI-H661; conditions: Homo sapiens, NCI-H661;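 also: cell viability assay read-out, IC50 being the concentration that inhibits growth of the cells by half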
# Description: SANGER: Inhibition of human NCI-H661 cell growth in a cell viability assay.
# [16] = test system: KYSE-270; conditions: Homo sapiens, KYSE-270;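 also: cell growth inhibition measured with a viability assay in the human KYSE-270 line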
# Description: SANGER: Inhibition of human KYSE-270 cell growth in a cell viability assay.
# [17] = test system: HT-1080; conditions: Homo sapiens, HT-1080
# Description: SANGER: Inhibition of human HT-1080 cell growth in a cell viability assay.
# [18] = test system: NCI-H2052; conditions: Homo sapiens, NCI-H2052;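 also: growth inhibition of NCI-H2052 cells, read out with a cell viability assay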
# Description: SANGER: Inhibition of human NCI-H2052 cell growth in a cell viability assay.
# [19] = test system: RPMI-7951; conditions: Homo sapiens, RPMI-7951
# Description: SANGER: Inhibition of human RPMI-7951 cell growth in a cell viability assay.
# [20] = test system: LK-2; conditions: Homo sapiens, LK-2;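 also: growth inhibition of LK-2 cells, read out with a viability assay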
# Description: SANGER: Inhibition of human LK-2 cell growth in a cell viability assay.
# [21] = test system: HCC1806; conditions: Homo sapiens, HCC1806;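 also: growth inhibition of the cancer cell line, determined with a cell viability assay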
# Description: SANGER: Inhibition of human HCC1806 cell growth in a cell viability assay.
# [22] = test system: G-361; conditions: Homo sapiens, G-361
# [23] = test system: CA46; conditions: Homo sapiens, CA46;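 also: growth inhibition of human CA46 cells, read out by a cell viability assay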
# Description: SANGER: Inhibition of human CA46 cell growth in a cell viability assay.
# [24] = test system: C-33-A; conditions: Homo sapiens, C-33-A;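 also: cell viability assay measuring growth inhibition of C-33-A cells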
# Description: SANGER: Inhibition of human C-33-A cell growth in a cell viability assay.
# [25] = test system: 786-0; conditions: Homo sapiens
# Description: SANGER: Inhibition of human 786-0 cell growth in a cell viability assay.
# [26] = test system: HEC-1; conditions: Homo sapiens, HEC-1;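 also: growth inhibition of the cell line, read out with a cell viability assay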
# Description: SANGER: Inhibition of human HEC-1 cell growth in a cell viability assay.
# [27] = test system: DOK; conditions: Homo sapiens, DOK;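 also: cell viability assay read-out, values reflect inhibition of cell growth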
# Description: SANGER: Inhibition of human DOK cell growth in a cell viability assay.
# [28] = test system: BHT-101; conditions: Homo sapiens, BHT-101
# Description: SANGER: Inhibition of human BHT-101 cell growth in a cell viability assay.
# [29] = test system: HSC-2; conditions: Homo sapiens, HSC-2;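 also: growth inhibition of human HSC-2 cells, read out by a cell viability assay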
# Description: SANGER: Inhibition of human HSC-2 cell growth in a cell viability assay.
# [30] = test system: SCC-25; conditions: Homo sapiens, SCC-25;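 also: growth inhibition of SCC-25 cells, measured with a cell viability assay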
# Description: SANGER: Inhibition of human SCC-25 cell growth in a cell viability assay.
# [31] = test system: NY; conditions: Homo sapiens, NY
# Description: SANGER: Inhibition of human NY cell growth in a cell viability assay.
# [32] = test system: LoVo; conditions: Homo sapiens, LoVo;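 also: growth inhibition of human LoVo cells, read out with a cell viability assay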
# Description: SANGER: Inhibition of human LoVo cell growth in a cell viability assay.
# [33] = test system: PFSK-1; conditions: Homo sapiens, PFSK-1;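 also: cell viability assay measuring how strongly compounds suppress growth of human PFSK-1 cells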
# Description: SANGER: Inhibition of human PFSK-1 cell growth in a cell viability assay.
# [34] = test system: NCI-H1623; conditions: Homo sapiens, NCI-H1623;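 also: cell viability assay used as the read-out for growth inhibition of NCI-H1623 cells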
# Description: SANGER: Inhibition of human NCI-H1623 cell growth in a cell viability assay.
# [35] = test system: HT-29; conditions: Homo sapiens, HT-29;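 also: growth inhibition of human HT-29 cells, read out by a cell viability assay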
# Description: SANGER: Inhibition of human HT-29 cell growth in a cell viability assay.
# [36] = test system: WM-115; conditions: Homo sapiens, WM-115
# Description: SANGER: Inhibition of human WM-115 cell growth in a cell viability assay.
# [37] = test system: HSC-3; conditions: Homo sapiens, HSC-3
# Description: SANGER: Inhibition of human HSC-3 cell growth in a cell viability assay.
# [38] = test system: HO-1-N-1; conditions: Homo sapiens, HO-1-N-1;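 also: growth inhibition of human HO-1-N-1 cells, read out with a cell viability assay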
# Description: SANGER: Inhibition of human HO-1-N-1 cell growth in a cell viability assay.
# [39] = test system: SCLC-21H; conditions: Homo sapiens, SCLC-21H;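 also: growth inhibition of cultured human SCLC-21H cells, read out with a cell viability assay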
# Description: SANGER: Inhibition of human SCLC-21H cell growth in a cell viability assay.
# [40] = test system: YKG-1; conditions: Homo sapiens, YKG-1;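 also: cell growth inhibition, read out with a viability assay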
# Description: SANGER: Inhibition of human YKG-1 cell growth in a cell viability assay.
# [41] = test system: A2780; conditions: Homo sapiens, A2780;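 also: growth inhibition of A2780 cells, read out with a cell viability assay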
# Description: SANGER: Inhibition of human A2780 cell growth in a cell viability assay.
# [42] = test system: BL-41; conditions: Homo sapiens, BL-41;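 also: growth inhibition of human BL-41 cells, read out with a cell viability assay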
# Description: SANGER: Inhibition of human BL-41 cell growth in a cell viability assay.
# [43] = test system: AU565; conditions: Homo sapiens, AU565;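 also: cell viability assay measuring growth inhibition of human AU565 cells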
# Description: SANGER: Inhibition of human AU565 cell growth in a cell viability assay.
# [44] = test system: HT-3; conditions: Homo sapiens, HT-3;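 also: growth inhibition measured with a cell viability readout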
# Description: SANGER: Inhibition of human HT-3 cell growth in a cell viability assay.
# [45] = test system: LCLC-103H cell line; conditions: Homo sapiens, LCLC-103H
# Description: SANGER: Inhibition of human LCLC-103H cell growth in a cell viability assay.
# [46] = test system: SK-MES-1; conditions: Homo sapiens, SK-MES-1;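 also: growth inhibition of human SK-MES-1 cells, read out with a cell viability assay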
# Description: SANGER: Inhibition of human SK-MES-1 cell growth in a cell viability assay.
# [47] = test system: EFM-19; conditions: Homo sapiens, EFM-19;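 also: growth inhibition of human EFM-19 cells, measured in a cell viability assay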
# Description: SANGER: Inhibition of human EFM-19 cell growth in a cell viability assay.
# [48] = test system: SW13; conditions: Homo sapiens, SW13;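 also: IC50 is inhibition of SW13 cell growth, read out with a cell viability assay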
# Description: SANGER: Inhibition of human SW13 cell growth in a cell viability assay.
compound,measurement,setting,value
Cc1cc([N+](=O)[O-])ccc1NS(=O)(=O)c1cc(Cl)ccc1Cl,IC50,[1],8.51 µM
same,IC50,[2],13.8 µM
same,IC50,[3],2650 nM
same,IC50,[4],5910 nM
same,IC50,[5],7.96 µM
same,IC50,[6],11.5 µM
same,IC50,[7],2620 nM
same,IC50,[8],> 32 µM
same,IC50,[9],3270 nM
same,IC50,[10],> 32000 nM
same,IC50,[11],2730 nM
same,IC50,[12],8.68 µM
same,IC50,[13],7.85 µM
same,IC50,[14],> 32 µM
same,IC50,[15],2820 nM
same,IC50,[16],3030 nM
same,IC50,[17],675 nM
same,IC50,[18],18.2 µM
same,IC50,[19],29.3 µM
same,IC50,[20],928 nM
same,IC50,[21],20.5 µM
same,IC50,[22],1770 nM
same,IC50,[23],7.16 µM
same,IC50,[24],2000 nM
same,IC50,[25],3920 nM
same,IC50,[26],8.24 µM
same,IC50,[27],> 32000 nM
same,IC50,[28],21.4 µM
same,IC50,[29],4560 nM
same,IC50,[30],10.9 µM
same,IC50,[31],3320 nM
same,IC50,[32],2000 nM
same,IC50,[33],12.4 µM
same,IC50,[34],> 32000 nM
same,IC50,[35],5530 nM
same,IC50,[36],> 32 µM
same,IC50,[37],2890 nM
same,IC50,[38],> 32000 nM
same,IC50,[39],4.84 µM
same,IC50,[40],5660 nM
same,IC50,[41],5490 nM
same,IC50,[42],> 32000 nM
same,IC50,[43],2340 nM
same,IC50,[44],> 32000 nM
same,IC50,[45],5600 nM
same,IC50,[46],2070 nM
same,IC50,[47],5440 nM
same,IC50,[48],1990 nM
COc1cccc2c1C(=O)c1c(O)c3c(c(O)c1C2=O)C[C@@](O)(C(=O)CO)C[C@@H]3O[C@H]1C[C@H](N)[C@H](O)[C@H](C)O1 [DOXORUBICIN],IC50,[1],> 1.02 µM
same,IC50,[2],0.382 µM
same,IC50,[3],32.8 nM
same,IC50,[4],80.5 nM
same,IC50,[5],0.0425 µM
same,IC50,[6],0.514 µM
same,IC50,[7],21.3 nM
same,IC50,[8],> 1.02 µM
same,IC50,[9],12.5 nM
same,IC50,[10],441 nM
same,IC50,[11],43.7 nM
same,IC50,[12],0.43 µM
same,IC50,[13],> 1.02 µM
same,IC50,[14],> 1.02 µM
same,IC50,[15],49 nM
same,IC50,[16],7.21 nM
same,IC50,[17],14.8 nM
same,IC50,[18],0.16 µM
same,IC50,[19],0.13 µM
same,IC50,[20],581 nM
same,IC50,[21],0.075 µM
same,IC50,[22],27.9 nM
same,IC50,[23],0.137 µM
same,IC50,[24],32.9 nM
same,IC50,[25],8.47 nM
same,IC50,[26],0.183 µM
same,IC50,[27],1020 nM
same,IC50,[28],0.396 µM
same,IC50,[29],26.8 nM
same,IC50,[30],0.154 µM
same,IC50,[31],228 nM
same,IC50,[32],81.8 nM
same,IC50,[33],0.678 µM
same,IC50,[34],605 nM
same,IC50,[35],36.6 nM
same,IC50,[36],> 1.02 µM
same,IC50,[37],74.5 nM
same,IC50,[38],223 nM
same,IC50,[39],> 1.02 µM
same,IC50,[40],18.8 nM
same,IC50,[41],68.8 nM
same,IC50,[42],122 nM
same,IC50,[43],105 nM
same,IC50,[44],133 nM
same,IC50,[45],20.5 nM
same,IC50,[46],31.5 nM
same,IC50,[47],478 nM
same,IC50,[48],115 nM
